The source of these data is patent US6699868B2, “Pyridazinyl phenyl hydrazones useful against congestive heart failure” (Orion Corporation, priority 2000, dated 2004).

Data set [1] relates to skinned cardiac fiber. Briefly: Calcium sensitizing effect in skinned cardiac fiber. Type of data set: cell-based, guinea-pig. The note with it: test compound 0.1-10 μM added cumulatively, calcium (pCa 6.0 or 6.2)-induced tension, room temperature; for Emax: Cavia porcellus, maximum effect, read-out: Change in force/ % change from control (maximum calcium sensitizing effect in skinned fiber). As to the method:
Experiment 1. Calcium sensitizing effect in skinned cardiac fiber
The heart of a guinea-pig was excised and perfused with ice-cold saponin (125 mg/l) skinning solution consisting of (mM): K^+-acetate 74.7. EGTA-Na2 10, MgSO4 5.4, ATP-Na2 4, MOPS 20, pH 7.0 (by 1 M KOH). Left ventricular papillary muscle was dissected and sonicated at 10 Watt for 60 s. The distance between ultrasound probe and the papillary muscle was 10 mm. The fibres (<200 μm in diameter) were dissected from the surface of sonicated papillary muscles in the same solution.
The fibre was glued between platinum wires, one attached to an isometric force transducer (type AE-801,SensoNor, Horten, Norway) and another to a micro manipulator. The fibre was relaxed in a solution consisting of (mM): EGTA-Na2 10, MgSO4 5.4, ATP-Na2 4, MOPS 20. The pH of the solution was adjusted to 7.0 and ionic strength to 0.16 M by the addition of KOH and K^+-acetate. Creatine kinase and creatine phosphate were not added as an ATP generating system because the developed tension was well sustained for the time required for experiment. The calculations for ionic strength and for free calcium (pCa 7.0-6.2) were performed using a suitable program. The fibres were stretched in relaxing solution until resting tension was just noticeable. When the calcium (pCa 6.0 or 6.2)-induced tension had reached steady state the test compound (final concentrations 0.1, 0.3, 1, 3,and 10 μM) was cumulatively added into the solution at 6 min intervals. All the experiments were carried out with fresh fibres at normal room temperature.

The test system of data set [2] is isolated heart. Kind of data set: Effect in left ventricular pressure derivatives in isolated heart (Langendorff). Particulars: isolated guinea-pig heart, constant pressure 50 mmHg, 37° C., read-out: EC50 on maximal positive derivative of the left ventricular systolic pressure. As to the method:
Experiment 2. Effect in left ventricular pressure derivatives in isolated heart
After sacrification the heart of a guinea-pig was rapidly excised and rinsed in oxygenated perfusion buffer. A cannula was inserted into the aorta and secured with a ligature. Retrograde perfusion began as soon as the heart was placed in a thermostatically controlled moist chamber of the Langendorff apparatus (Hugo Sachs Elektronik, KG). Modified Tyrode solution (37° C.), equilibrated in a thermostatically controlled bulb oxygenator with carbogen (95% O2 and 5% CO2), was used as a perfusion buffer. The composition of the Tyrode solution was (in mM): NaCl 135; MgCl2×6H2O 1; KCl 5; CaCl2×2H2O 2; NaHCO3 15; Na2HPO4×2H2O 1; glucose 10; pH 7.3-7.4. The perfusion buffer was delivered at the top of the oxygenator by a pump and driven automatically by its controller. Subsequently, the buffer was delivered into the bulbs of the oxygenator chamber by a rotating disk. It was dispersed by making a thin fluid film on a large inner oxygenator surface in O2/CO2 atmosphere leading to saturation of the perfusate with oxygen (partial pressure 660 mmHg at 37° C.).
The experiments were carried out under constant pressure condition (50 mmHg). After a short prestabilization (10 min) a latex balloon (size 4) was carefully placed into the left ventricle through the left pulmonary vein and the left atrium. The latex balloon was attached to a stainless-steel cannula coupled with a pressure transducer. The latex balloon, the cannula and the chamber of the pressure transducer were carefully filled with ethylene glycol/water (1:1) mixture avoiding any air-bubble. The isovolumetric left ventricular pressure was recorded through the pressure transducer. At the beginning of the experiment, the volume of the balloon was adjusted to obtain a diastolic pressure of approximately 5 mmHg. Before starting the experiment the heart was allowed to stabilise further for 30-50 min. The systolic and end-diastolic left ventricular pressures were recorded for calculating the maximal positive and negative derivatives of the left ventricular pressure.

Structures are written as SMILES. Where two headings read alike, the source gives them in different places.

A word on the EC50: it is the midpoint of the concentration-response curve. Take `COc1c(O)ccc(C=NNc2ccc(C3=NNC(=O)C[C@H]3C)cc2)c1[N+](=O)[O-]` [Example 2, (R)-6-{4-[N′-(4-Hydroxy-3-methoxy-2-nitro-benzylidene)-hydrazino]-phenyl}-5-methyl-4,5-dihydro-2H-pyridazin-3-one]: the Emax in data set [1] was determined as 207%. In addition, the EC50 in data set [2] (Cavia porcellus) came out at 20 nM.
The melting point is the temperature of the solid-liquid transition. In the case of `COc1c(O)ccc(C=NNc2ccc(C3=NNC(=O)CC3C)cc2)c1[N+](=O)[O-]` (centres unmarked) [Example 6, 6-{4-[N′-(4-Hydroxy-3-methoxy-2-nitro-benzylidene)-hydrazino]-phenyl}-5-methyl-4,5-dihydro-2H-pyridazin-3-one], the melting point lay within 235 to 239 °C. Also, the Emax in data set [1] was 32.9%. Moreover, the EC50 in data set [2] (Cavia porcellus) is 310 nM.
On the same counts, the results for `Cc1cc(=O)[nH]nc1-c1ccc(NN=Cc2ccc(O)cc2O)cc1` [Example 21, 6-{4-[N′-(2,4-Dihydroxybenzylidene)hydrazino]phenyl}-5-methyl-2H-pyridazin-3-one] are 303 to 310 °C, 44.2% and 3040 nM.
For `CC(=NNc1ccc(-c2n[nH]c(=O)cc2C)cc1)c1ccc(O)cc1O` [Example 23, 6-{4-{N′-[1-(2,4-Dihydroxyphenyl)ethylidene]hydrazino}phenyl}-5-methyl-2H-pyridazin-3-one], the Emax in data set [1] is 39.9%. For the same molecule, the EC50 in data set [2] (Cavia porcellus) is 2470 nM.
Take `Cc1cc(=O)n(C)nc1-c1ccc(NN=Cc2ccc(O)cc2O)cc1` [Example 24, 6-{4-[N′-(2,4-Dihydroxybenzylidene)hydrazino]phenyl}-2,5-dimethyl-2H-pyridazin-3-one]: the melting point was 266 to 269 °C. Moreover, the Emax in data set [1] came to 42%.
Take `CC(=NNc1ccc(C2=NNC(=O)CC2C)cc1)c1ccc(O)cc1O` (centres unmarked) [Example 33, 6-(4-{N′-[1-(2,4-Dihydroxy-phenyl)-ethylidene]-hydrazino}-phenyl)-5-methyl-4,5-dihydro-2H-pyridazin-3-one]: the melting point lay within 259 to 261 °C. The Emax in data set [1] was found to be 55.2%. In addition, the half-maximal effective concentration (EC50) in data set [2] (Cavia porcellus) stood at 400 nM.
For the molecule `CC1CC(=O)NN=C1c1ccc(NN=C(c2ccc(O)cc2O)c2ccc(O)cc2O)cc1` (centres unmarked) [Example 34, 6-(4-{N′-[Bis-(2,4-dihydroxy-phenyl)-methylene]-hydrazino}-phenyl)-5-methyl-4,5-dihydro-2H-pyridazin-3-one], the Emax in data set [1] worked out at 52.8%. Further, the EC50 in data set [2] (Cavia porcellus) amounted to 110 nM.
Turning to `CC(=NNc1ccc(C2=NNC(=O)CC2C)cc1)c1cc(O)ccc1O` (centres unmarked) [Example 35, 6-(4-{N′-[1-(2,5-Dihydroxy-phenyl)-ethylidene]-hydrazino}-phenyl)-5-methyl-4,5-dihydro-2H-pyridazin-3-one], the melting point lay within 279 to 284 °C. In addition, in data set [1], the Emax was determined as 25.4%. In addition, the EC50 in data set [2] (Cavia porcellus) was 310 nM.
In turn, `CC(=O)Nc1ccc(C(C)=NNc2ccc(C3=NNC(=O)CC3C)cc2)cc1` (centres unmarked) [Example 37, N-[4-(1-{[4-(4-Methyl-6-oxo-1,4,5,6-tetrahydro-pyridazin-3-yl)-phenyl]-hydrazono}-ethyl)-phenyl]-acetamide] registered a melting point of 145 to 155 °C. Further, the Emax in data set [1] was found to be 21.7%.
On the same counts, the results for `CC(=NNc1ccc(C2=NNC(=O)CC2C)cc1)c1ccc(O)c(C)c1O` (centres unmarked) [Example 38, 6-(4-{N′-[1-(2,4-Dihydroxy-3-methyl-phenyl)-ethylidene]-hydrazino}-phenyl)-5-methyl-4,5-dihydro-2H-pyridazin-3-one] are 244 to 248 °C and 32.2%.
Molecule `CCc1c(O)ccc(C=NNc2ccc(C3=NNC(=O)CC3C)cc2)c1O` (centres unmarked) [Example 40, 6-{4-[N′-(3-Ethyl-2,4-dihydroxy-benzylidene)-hydrazino]-phenyl}-5-methyl-4,5-dihydro-2H-pyridazin-3-one] showed a melting point of 238 to 240 °C. For the same molecule, in data set [1], the Emax is 100%. Besides, the EC50 in data set [2] (Cavia porcellus) amounted to 710 nM.
On the same counts, the results for `CCCc1c(O)ccc(C=NNc2ccc(C3=NNC(=O)CC3C)cc2)c1O` (centres unmarked) [Example 43, 6-{4-[N′-(2,4-Dihydroxy-3-propyl-benzylidene)-hydrazino]-phenyl}-5-methyl-4,5-dihydro-2H-pyridazin-3-one] are 160 to 170 °C, 39% and 1750 nM.
On to `CC(=NNc1ccc(C2=NNC(=O)CC2C)cc1)c1ccc(O)c(C)c1O` (centres unmarked) [Example 49, 6-(4-{N-[1-(2,4-Dihydroxy-3-methylphenyl)ethylidene]hydrazino}phenyl)-5-methyl-4,5-dihydro-2H-pyridazin-3-one], for which, in data set [1], the “Change in force/ % change from control (maximum calcium sensitizing effect in skinned fiber)” value is given as 28.7 % change from control. The EC50 in data set [2] stood at 250 nM.
Molecule `CC1CC(=O)NN=C1c1ccc(NN=Cc2ccc(O)cc2)cc1` (centres unmarked) [Example 61, 6-{4-[N′-(4-Hydroxy-benzylidene)-hydrazino]-phenyl}-5-methyl-4,5-dihydro-2H-pyridazin-3-one] registered a melting point of 258 to 261 °C.
As to `CC1CC(=O)NN=C1c1ccc(NN=Cc2cccc(O)c2)cc1` (centres unmarked) [Example 62, 6-{4-[N′-(3-Hydroxy-benzylidene)-hydrazino]-phenyl}-5-methyl-4,5-dihydro-2H-pyridazin-3-one], the melting point lay within 267 to 270 °C.
The same measure, in the same setting: with `CC1CC(=O)NN=C1c1ccc(NN=Cc2ccc(O)c([N+](=O)[O-])c2)cc1` (centres unmarked) [Example 63, 6-{4-[N′-(4-Hydroxy-3-nitro-benzylidene)-hydrazino]-phenyl}-5-methyl-4,5-dihydro-2H-pyridazin-3-one] the figure was 230 to 233 °C.
`CC1CC(=O)NN=C1c1ccc(NN=C(CCC(=O)O)c2ccc(O)cc2O)cc1` (centres unmarked) [Example 64, 4-(2,4-Dihydroxy-phenyl)-4-{[4-(4-methyl-6-oxo-1,4,5,6-tetrahydro-pyridazin-3-yl)-phenyl]-hydrazono}-butyric acid] displayed a melting point of 299 to 302 °C.
For the molecule `CC1CC(=O)NN=C1c1ccc(NN=C(CCCC(=O)O)c2ccc(O)cc2O)cc1` (centres unmarked) [Example 66, 5-(2,4-Dihydroxy-phenyl)-5-{[4-(4-methyl-6-oxo-1,4,5,6-tetrahydro-pyridazin-3-yl)-phenyl]-hydrazono}-pentanoic acid], the melting point lay in the range of 235 to 240 °C.
The same measure, in the same setting: with `COc1c(O)ccc(C(C)=NNc2ccc(C3=NNC(=O)CC3C)cc2)c1[N+](=O)[O-]` (centres unmarked) [Example 67, 6-(4-{N′-[1-(4-Hydroxy-3-methoxy-2-nitro-phenyl)-ethylidene]-hydrazino}-phenyl)-5-methyl-4,5-dihydro-2H-pyridazin-3-one] the figure was 251 to 254 °C.
